Laboratory results: article PMC8715118, “Assessing potentiation of the (α4)3(β2)2 nicotinic acetylcholine receptor by the allosteric agonist CMPI” (The Journal of Biological Chemistry, 2021)
Where two headings read alike, the source gives them in different places.

How the values were obtained:
Format in all cases: cell-based
(α4)3(β2)2 nAChR [1] = molecular target: T1, (α4)3(β2)2 nAChR (Homo sapiens, UniProt P17787+P43681); assay: Two-electrode voltage-clamp whole-cell currents, Xenopus oocytes expressing WT (α4)3(β2)2 nAChR
T1 construct: expressed in transfected cells; host or cells: Xenopus laevis oocytes injected with cRNA, 8:1 α4:β2
Experimental: (§1) Oocytes-positive female Xenopus laevis were purchased from NASCO, and all procedures were performed according to an animal use protocol approved by the Institutional Animals Care and Use Committee of The University of Texas Health Science Center at Tyler. Ovarian lobules were surgically harvested, treated with collagenase type 2, and Stage V and VI oocytes were visually selected and maintained at 18 °C in modified ND96-gentamicin buffer (96 mM NaCl, 2 mM KCl, 1.8 mM CaCl2, 1 mM MgCl2, 5 mM Hepes, and 50 μg/ml gentamicin, pH 7.6).
(§2) pSP64 Poly(A) plasmids with cDNA encoding for human α4 or β2 nAChR subunit were used to prepare cRNA transcripts suitable for oocyte expression. The plasmids were linearized with AseI (hα4) and PvuII (hβ2), then cRNA transcripts were prepared in vitro using mMESSAGE mMACHINE high yield-capped RNA transcription kits (Ambion, Thermo Fisher Scientific), purified on NucAway Spin column (Invitrogen, Thermo Fisher Scientific), and stored at −80 °C until used. Point mutations within the plasmid encoding the α4 nAChR subunit were introduced using QuikChange II Site-Directed Mutagenesis Kit (Agilent Technologies), as described previously ([28]). To generate amino acid substitutions (K64T, E66I, H116V, H116L, and H116A), two custom-designed complementary oligos containing the desired mutation were used (Integrated DNA Technologies). The forward primers were as the following with the codon for mutated amino acids are underlined and nucleotide(s) changes are bolded and italicized:
(§3) The oocytes were injected with 10 to 50 ng of a cRNA mix containing α4 (WT or mutant) and β2 RNAs at ratios of 8:1(α4:β) or 1:8 (α4:β2) to bias expression toward (α4)3(β2)2 or (α4)2(β2)3 nAChRs, respectively. The injection of oocytes with RNAs mixture containing four folds or higher α4 RNA than β2 RNA have been established to express receptor population that is made up of three α4 and two β2 subunits ([9], [12], [28], [43], [44], [45]).
(§4) 24 to 72 h after cRNA injection, Xenopus oocytes were placed in a custom-made recording chamber that is connected to an eight-channel automated perfusion system (Warner Instruments) and perfused with recording buffer (100 mM NaCl, 2 mM KCl, 1 mM CaCl2, 0.8 mM MgCl2, 1 mM EGTA, and 10 mM Hepes, pH 7.5). Unless otherwise specified in figure legends, each recording run included several drug applications (10 s of an agonist with or without CMPI or NS9283) separated by 3 to 4 min buffer wash intervals. Between recording runs, the oocytes were washed with recording buffer for at last 5 min. The oocytes were voltage-clamped at −50 mV using Oocyte Clamp OC-725B (Warner Instruments). The currents were digitized using Digidata 1550A (Axon Instruments, Molecular Devices), and the peak currents were quantified using pCLAMP 10 (Axon Instruments), then normalized and analyzed using Excel 2010 (Microsoft) and SigmaPlot 11.0 (Systat Software). For NS9283 and CMPI potentiation of agonist-induced responses, the peak currents were normalized to current elicited by agonist alone applied within the same recording run. For the effect of coapplication of 1 μM NS9283 or CMPI on agonist concentration-response curve, the peak currents were normalized to current elicited by saturating concentration of agonist applied within the same recording run. […] I0 = 100 for NS9283 and CMPI potentiation of agonist-induced responses and I0 = 0 for agonist concentration-response experiments. The best-fit values for Imax and EC50 ± SD are presented.

(α4)2(β2)3 nAChR = molecular target: T2, (α4)2(β2)3 nAChR (Homo sapiens, UniProt P17787+P43681); assay: Two-electrode voltage-clamp whole-cell currents, Xenopus oocytes expressing (α4)2(β2)3 nAChR
T2 construct: expressed in transfected cells; host or cells: Xenopus laevis oocytes injected with cRNA, 1:8 α4:β2
Experimental: as §1
pSP64 Poly(A) plasmids with cDNA encoding for human α4 or β2 nAChR subunit were used to prepare cRNA transcripts suitable for oocyte expression. The plasmids were linearized with AseI (hα4) and PvuII (hβ2), then cRNA transcripts were prepared in vitro using mMESSAGE mMACHINE high yield-capped RNA transcription kits (Ambion, Thermo Fisher Scientific), purified on NucAway Spin column (Invitrogen, Thermo Fisher Scientific), and stored at −80 °C until used. […]
Two-electrode voltage-clamp recordings of ACh- or TC-2559 induced responses of Xenopus oocytes were performed, as described in ([28]). […] The currents were digitized using Digidata 1550A (Axon Instruments, Molecular Devices), and the peak currents were quantified using pCLAMP 10 (Axon Instruments), then normalized and analyzed using Excel 2010 (Microsoft) and SigmaPlot 11.0 (Systat Software). […]

(α4H116A)3(β2)2 nAChR [2] = molecular target: T3, (α4H116A)3(β2)2 nAChR (Homo sapiens, UniProt P17787+P43681, H142A); assay: Two-electrode voltage-clamp, oocytes expressing (α4H116A)3(β2)2 nAChR
T3 construct: expressed in transfected cells; host or cells: Xenopus laevis oocytes injected with cRNA, 8:1 α4:β2
Experimental: as §1, §2, §3, §4

(α4)3(β2)2 nAChR [3] = molecular target: T1, (α4)3(β2)2 nAChR; assay: Mechanistic (Monod-Wyman-Changeux two-state model) analysis of current responses, WT (α4)3(β2)2 nAChR; settings: α4:β2 site, WT
Source text: To gain mechanistic insight into receptor activation in the presence of CMPI, we analyzed the currents in the framework of a cyclic two-state (resting and active) allosteric activation model ([31], [32], [33]). In this model, channel opening is mediated by stabilization of the active state by an agonist that, by definition, has higher affinity to the active than resting state.
We commenced by converting the raw amplitudes of current responses to units of probability of being in the active state (PA units).
(§5) Further analysis of electrophysiological data was conducted in the framework of the two-state concerted transition model, adapted from the MWC cyclic model originally used to describe enzyme function ([31], [32], [33]). The raw peak amplitudes of current responses were converted to units of probability of being in the active state (PA).
(§6) The numbers of α4:β2 and α4:α4 binding sites (Nα4:β2 and Nα4:α4) were constrained to 2 and 1, respectively.
(§7) The concentration-response curve for TC-2559 was fitted to the following equation:(3) PA=1/1+L[1+[TC-2559]/KR,TC-2559,α4:β2/1+[TC-2559]/(KR,TC-2559,α4:β2cTC-2559,α4:β2)]^Nα4:β2
(§8) The concentration-response data were analyzed using Equation 3, with the value of L modified to reflect receptor activation by TC-2559, and the affinity and efficacy terms in the equation reflecting the values for CMPI. The number of binding sites for CMPI in Equation 3 was constrained to 1.
(§9) Curve fitting was done using Origin 2020 (OriginLab Corp). The results are reported as best-fit parameter ±SD of the fit. All data are included in the analysis.

(α4H116A)3(β2)2 nAChR [4] = molecular target: T3, (α4H116A)3(β2)2 nAChR; assay: Mechanistic (Monod-Wyman-Changeux two-state model) analysis of current responses, (α4H116A)3(β2)2 nAChR; settings: α4H116A mutant; for Kd: read-out: KR, equilibrium dissociation constant in the resting receptor
Experimental: as §5, §6, §7, §8, §9

T1 sequence (P43681 27-627): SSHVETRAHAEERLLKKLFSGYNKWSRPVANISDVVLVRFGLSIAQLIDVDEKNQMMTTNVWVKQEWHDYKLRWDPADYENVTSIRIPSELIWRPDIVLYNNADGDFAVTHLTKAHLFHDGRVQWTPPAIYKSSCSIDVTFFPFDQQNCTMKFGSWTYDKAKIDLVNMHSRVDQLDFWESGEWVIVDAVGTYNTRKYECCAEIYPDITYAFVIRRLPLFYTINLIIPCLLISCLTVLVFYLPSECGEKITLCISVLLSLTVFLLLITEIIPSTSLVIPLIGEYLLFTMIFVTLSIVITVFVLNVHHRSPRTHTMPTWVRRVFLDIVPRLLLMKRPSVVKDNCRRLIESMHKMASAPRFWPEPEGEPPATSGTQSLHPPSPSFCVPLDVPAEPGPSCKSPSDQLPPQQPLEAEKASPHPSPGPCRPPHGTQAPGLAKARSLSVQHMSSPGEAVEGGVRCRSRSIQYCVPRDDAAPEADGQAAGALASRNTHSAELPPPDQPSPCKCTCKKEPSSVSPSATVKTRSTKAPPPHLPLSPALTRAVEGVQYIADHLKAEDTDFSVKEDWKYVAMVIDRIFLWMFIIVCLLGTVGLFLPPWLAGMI
T1 sequence (P17787 26-502): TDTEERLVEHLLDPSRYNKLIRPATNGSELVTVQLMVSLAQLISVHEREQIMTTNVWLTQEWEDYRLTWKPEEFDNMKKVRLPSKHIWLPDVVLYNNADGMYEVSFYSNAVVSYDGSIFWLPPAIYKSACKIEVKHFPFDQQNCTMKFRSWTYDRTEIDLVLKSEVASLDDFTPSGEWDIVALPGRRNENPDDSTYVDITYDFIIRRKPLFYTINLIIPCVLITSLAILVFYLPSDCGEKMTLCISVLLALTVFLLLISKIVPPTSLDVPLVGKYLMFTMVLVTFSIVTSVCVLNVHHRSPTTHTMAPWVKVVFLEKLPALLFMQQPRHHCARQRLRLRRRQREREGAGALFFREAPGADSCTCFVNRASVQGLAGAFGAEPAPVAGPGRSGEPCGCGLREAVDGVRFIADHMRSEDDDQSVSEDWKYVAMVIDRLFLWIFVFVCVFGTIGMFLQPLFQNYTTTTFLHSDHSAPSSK
T3 sequence (P43681 27-627 H142A): as the sequence (P43681 27-627) above, with H116A counted along it
T3 sequence (P17787 26-502): as the sequence (P17787 26-502) above
T2 sequence (P43681 27-627): as the sequence (P43681 27-627) above
T2 sequence (P17787 26-502): as the sequence (P17787 26-502) above

In the case of `CCOc1cncc(/C=C/CCNC)c1` [TC-2559], the “I30 μM TC-2559, % of current induced by 1 mM ACh” value ((α4)3(β2)2 nAChR [1]; 30 μM TC-2559) is reported as 11 ± 2%, the “Emax, % of current induced by 1 mM ACh” value ((α4)3(β2)2 nAChR [1]; WT) is reported as roughly 10% and the EC50 ((α4)3(β2)2 nAChR [1]; agonist alone, read-out: agonist EC50) is reported as 340 ± 40 nM. For the same compound, the “I30 μM TC-2559, % of current induced by 1 mM ACh” value ((α4)2(β2)3 nAChR; 30 μM TC-2559) was 152 ± 21%, the EC50 ((α4)2(β2)3 nAChR; agonist alone) was 540 ± 20 nM and the “Emax, % of current induced by 1 mM ACh” value ((α4H116A)3(β2)2 nAChR [2]) was 182 ± 5%. The Emax ((α4H116A)3(β2)2 nAChR [2]; absence of CMPI, normalized to 100 μM TC-2559) was 115 ± 14%, the EC50 ((α4H116A)3(β2)2 nAChR [2]; absence of CMPI, read-out: EC50 of TC-2559) was 22000 ± 7000 nM and the “c, ratio of equilibrium dissociation constants active/resting receptor” value ((α4)3(β2)2 nAChR [3]) was 0.371 ± 0.006. The Kd ((α4)3(β2)2 nAChR [3]; read-out: KR, equilibrium dissociation constant in the resting receptor) was 330 ± 50 nM, the “c, ratio of equilibrium dissociation constants active/resting receptor” value ((α4H116A)3(β2)2 nAChR [4]; α4:α4 site) was 0.046 ± 0.003 and the Kd ((α4H116A)3(β2)2 nAChR [4]; α4:α4 site) was 70000 ± 3000 nM. For the same compound, the “c, ratio of equilibrium dissociation constants active/resting receptor” value ((α4H116A)3(β2)2 nAChR [4]; α4:β2 site) was 0.337 ± 0.013 and the Kd ((α4H116A)3(β2)2 nAChR [4]; α4:β2 site) was 210 ± 50 nM.
